The supplement of paper PMC10331698
± gives the standard deviation of the averaged measurements.

Key:
Experiment in all cases: level (log10 ratio to DMSO vehicle control); higher = higher biomarker level / cell amount than vehicle control
[1] = compound: C=CC(=O)OCCC(F)(F)C(F)(F)C(F)(F)C(F)(F)C(F)(F)C(F)(F)C(F)(F)C(F)(F)F [8:2 Fluorotelomer acrylate]; details: in DMSO
Procedure: (§1)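 BioMAP Diversity Plus panel of 12 human primary cell co-culture systems (3C, 4H, LPS, SAg, BT, BF4T, BE3C, CASM3C, HDF3CGF, KF3CT, MyoF, Mphg). Compounds were added 1 h before stimulation and left for 24 h (MyoF 48 h; BT 72 h for soluble read-outs or 6 d for IgG). Biomarkers were read by ELISA, cytotoxicity by SRB, PBMC viability and proliferation by Alamar Blue. Each well value was divided by the mean of 8 DMSO control wells on the same plate and log10 transformed; duplicate blinded samples were tested at 4 concentrations.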

[2] = compound: FC(F)(F)C(F)(F)C(F)(F)C(F)(F)CCI [1H,1H,2H,2H-Perfluorohexyl iodide]; details: in DMSO
Procedure: as §1

[3] = compound: FC(F)(F)COC(OCC(F)(F)F)OCC(F)(F)F [tris(Trifluoroethoxy)methane]; details: in DMSO
Procedure: as §1

[4] = compound: FC(F)(I)C(F)(F)C(F)(F)C(F)(F)C(F)(F)C(F)(F)I [1,6-Diiodoperfluorohexane]; details: 6700 nM; in DMSO
Procedure: as §1

[5] = compound: O=C(CC(=O)C(F)(F)C(F)(F)C(F)(F)F)c1cccs1 [(Perfluorobutyryl)-2-thenoylmethane]; details: in DMSO
Procedure: as §1

[6] = compound: O=C(Cl)C(F)(F)C(F)(F)C(F)(F)C(=O)Cl [Hexafluoroglutaryl chloride]; details: in DMSO
Procedure: as §1

[7] = compound: OCC(F)(F)C(F)(F)C(F)(F)C(F)(F)C(F)(F)C(F)(F)F [6:1 Fluorotelomer alcohol]; details: in DMSO
Procedure: as §1

Test System | level (log10) ([1]; 6700 nM) | level (log10) ([1]; 20000 nM) | level (log10) ([1]; 60000 nM) | level (log10) ([2]; 6700 nM) | level (log10) ([2]; 20000 nM) | level (log10) ([2]; 60000 nM) | level (log10) ([3]; 6700 nM) | level (log10) ([3]; 20000 nM) | level (log10) ([3]; 60000 nM) | level (log10) [4] | level (log10) ([5]; 6700 nM) | level (log10) ([5]; 20000 nM) | level (log10) ([6]; 6700 nM) | level (log10) ([6]; 20000 nM) | level (log10) ([6]; 60000 nM) | level (log10) ([7]; 6700 nM) | level (log10) ([7]; 20000 nM) | level (log10) ([7]; 60000 nM)
SAg:CCL2/MCP-1 | -0.0115 ± 0.00071 | -0.023 ± 0.013 | -0.0085 ± 0.036 | -0.0075 ± 0.015 | 0.004 ± 0.0014 | -0.015 ± 0.018 | -0.0215 ± 0.0035 | -0.0215 ± 0.0064 | 0.0105 ± 0.022 | 0.001 | -0.06 ± 0.0042 | -0.146 ± 0.0014 | -0.02 ± 0.017 | -0.004 ± 0.041 | 0.017 ± 0.051 | -0.002 ± 0.0057 | -0.0085 ± 0.005 | 0.0175 ± 0.025
4H:CD106/VCAM-1 | -0.0045 ± 0.035 | -0.023 ± 0.051 | -0.0255 ± 0.026 | 0.0045 ± 0.0021 | -0.0125 ± 0.0092 | -0.0525 ± 0.011 | -0.0145 ± 0.0035 | -0.0025 ± 0.0078 | -0.009 ± 0.0071 | -0.052 | -0.009 ± 0.0071 | -0.234 ± 0.04 | 0.0015 ± 0.0092 | -0.005 ± 0.021 | 0.001 ± 0.011 | 0.0035 ± 0.033 | -0.0045 ± 0.049 | 0.0195 ± 0.0078
LPS:sTNF-alpha | -0.0245 ± 0.025 | -0.029 ± 0.027 | -0.0175 ± 0.012 | -0.003 ± 0.12 | 0.0385 ± 0.069 | 0.088 ± 0.071 | -0.009 ± 0.017 | 0.001 | 0.0105 ± 0.011 | -0.007 | 0.0225 ± 0.036 | 0.119 ± 0.029 | 0.046 ± 0.023 | 0.033 ± 0.0085 | 0.0465 ± 0.012 | -0.0625 ± 0.071 | -0.046 ± 0.09 | -0.0115 ± 0.0092
3C:CXCL8/IL-8 | 0.009 ± 0.0057 | 0.012 ± 0.035 | 0.0555 ± 0.049 | -0.0135 ± 0.018 | -0.007 ± 0.014 | 0.0495 ± 0.00071 | -0.007 ± 0.016 | -0.0085 ± 0.005 | 0.003 ± 0.013 | -0.008 | -0.112 ± 0.0035 | -0.091 ± 0.014 | -0.007 ± 0.023 | -0.0075 ± 0.029 | 0.047 ± 0.048 | -0.0095 ± 0.013 | 0.0145 ± 0.011 | 0.055 ± 0.057
SAg:CXCL9/MIG | -0.0065 ± 0.0035 | -0.017 ± 0.0014 | 0.009 ± 0.0099 | -0.0015 ± 0.005 | -0.006 ± 0.0085 | 0.009 ± 0.0028 | 0.0015 ± 0.018 | 0.011 ± 0.0042 | 0.014 ± 0.0028 | -0.008 | -0.0075 ± 0.0035 | -0.0245 ± 0.011 | 0 ± 0.016 | -0.0005 ± 0.011 | 0.013 ± 0.017 | -0.0025 ± 0.021 | -0.013 ± 0.018 | -0.0055 ± 0.0092
BE3C:CXCL8/IL-8 | -0.019 ± 0.027 | -0.013 ± 0.033 | 0.043 ± 0.021 | 0.0225 ± 0.0078 | 0.016 ± 0.025 | 0.0525 ± 0.057 | 0.018 ± 0.051 | 0.0155 ± 0.04 | 0.0505 ± 0.013 | 0.011 | -0.0905 ± 0.013 | -0.01 ± 0.023 | 0.0585 ± 0.046 | 0.0345 ± 0.077 | 0.0555 ± 0.083 | 0.004 ± 0.017 | -0.0125 ± 0.042 | -0.0075 ± 0.0064
BE3C:HLA-DR | -0.0045 ± 0.011 | 0.009 ± 0.017 | 0.019 ± 0.034 | -0.0105 ± 0.0064 | 0 ± 0.0014 | -0.005 ± 0.0042 | -0.0015 ± 0.011 | 0.0155 ± 0.0064 | 0.006 ± 0.021 | -0.01 | -0.044 ± 0.0028 | -0.41 ± 0.032 | -0.0075 ± 0.013 | -0.016 ± 0.0057 | -0.007 ± 0.0071 | 0.009 ± 0.025 | -0.0085 ± 0.026 | -0.077 ± 0.13
SAg:PBMC Cytotoxicity | -0.01 ± 0.013 | -0.006 ± 0.027 | -0.0005 ± 0.05 | 0.006 ± 0.03 | -0.0025 ± 0.03 | -0.093 ± 0.088 | -0.0115 ± 0.0078 | 0.01 ± 0.017 | 0.0135 ± 0.022 | 0.026 | -0.0295 ± 0.019 | -0.058 ± 0.03 | 0.0075 ± 0.0078 | -0.022 ± 0.018 | 0.0185 ± 0.021 | -0.014 ± 0.013 | -0.014 ± 0.0099 | -0.0295 ± 0.073
BF4T:MMP-3 | -0.014 ± 0.0057 | -0.022 ± 0.0057 | 0.0085 ± 0.028 | 0.018 ± 0.04 | 0.015 ± 0.047 | 0.049 ± 0.078 | 0.014 ± 0.044 | 0.004 ± 0.041 | 0.006 ± 0.042 | -0.029 | -0.0475 ± 0.026 | -0.0985 ± 0.032 | -0.004 ± 0.011 | -0.0145 ± 0.0064 | 0.019 ± 0.0057 | -0.012 ± 0.018 | -0.0195 ± 0.0064 | -0.002 ± 0.021
BT:sTNF-alpha | 0.128 ± 0.0057 | 0.034 ± 0.027 | 0.159 ± 0.14 | -0.016 ± 0.085 | -0.003 ± 0.0028 | -0.036 ± 0.095 | 0.017 ± 0.11 | -0.0365 ± 0.033 | 0.0085 ± 0.043 | -0.145 | -0.0385 ± 0.063 | -0.354 ± 0.13 | 0.0505 ± 0.025 | -0.0155 ± 0.037 | 0.104 ± 0.07 | 0.0265 ± 0.084 | -0.0265 ± 0.033 | -0.33 ± 0.0042
4H:CCL26/Eotaxin-3 | 0.0235 ± 0.0021 | -0.012 ± 0.018 | 0.01 ± 0.048 | -0.0145 ± 0.032 | -0.06 ± 0.013 | -0.1 ± 0.0042 | 0.018 ± 0.047 | 0.0235 ± 0.043 | 0.0415 ± 0.0078 | -0.037 | -0.041 ± 0.0057 | -0.241 ± 0.016 | 0.016 ± 0.017 | 0.021 ± 0.027 | 0.013 ± 0.016 | 0.01 ± 0.0085 | 0.012 ± 0.018 | -0.003 ± 0.025
LPS:M-CSF | 0.001 ± 0.0085 | -0.006 ± 0.023 | -0.03 ± 0.0014 | 0.002 ± 0.0042 | 0 ± 0.0099 | -0.0055 ± 0.028 | 0.003 ± 0.0085 | 0.005 ± 0.0042 | -0.0005 ± 0.0092 | -0.008 | 0.004 ± 0.085 | -0.046 ± 0.072 | -0.014 ± 0.05 | 0.001 ± 0.0085 | -0.0105 ± 0.005 | 0.009 ± 0.038 | 0.0085 ± 0.05 | 0.0125 ± 0.023
3C:CD87/uPAR | 0.007 ± 0.027 | -0.0065 ± 0.025 | -0.0025 ± 0.036 | 0.0035 ± 0.013 | -0.005 ± 0.0071 | 0.0085 ± 0.025 | -0.0515 ± 0.063 | -0.032 ± 0.027 | -0.018 ± 0.04 | -0.022 | -0.148 ± 0.033 | -0.07 ± 0.03 | -0.009 ± 0.0071 | 0.0225 ± 0.022 | 0.003 ± 0.041 | -0.021 | -0.01 ± 0.042 | 0 ± 0.0085
BF4T:uPA | -0.0405 ± 0.039 | -0.033 ± 0.025 | -0.023 ± 0.031 | -0.0205 ± 0.0021 | -0.0145 ± 0.013 | 0.0115 ± 0.035 | 0.001 ± 0.0099 | -0.017 ± 0.011 | -0.0095 ± 0.00071 | -0.031 | -0.0235 ± 0.00071 | -0.0535 ± 0.047 | -0.02 ± 0.048 | -0.004 ± 0.028 | -0.008 ± 0.013 | -0.0155 ± 0.0064 | -0.011 ± 0.018 | -0.023 ± 0.024
4H:VEGFR2 | 0.019 ± 0.024 | 0.0175 ± 0.026 | 0.016 ± 0.04 | -0.029 ± 0.065 | -0.058 | -0.0605 ± 0.043 | -0.0045 ± 0.023 | 0.006 ± 0.017 | 0.006 ± 0.021 | -0.002 | -0.0915 ± 0.0078 | -0.172 ± 0.064 | -0.0325 ± 0.029 | 0.018 ± 0.031 | 0.047 ± 0.035 | 0.0035 ± 0.042 | -0.005 ± 0.013 | 0.012 ± 0.023
SAg:CXCL8/IL-8 | -0.021 ± 0.0099 | -0.029 ± 0.0099 | -0.0185 ± 0.043 | 0.012 ± 0.0042 | -0.0035 ± 0.0092 | -0.006 ± 0.058 | 0.002 ± 0.023 | 0.0085 ± 0.0021 | 0.0135 ± 0.00071 | -0.012 | -0.169 ± 0.058 | -0.177 ± 0.0085 | -0.024 ± 0.0071 | -0.029 ± 0.042 | 0.0065 ± 0.005 | -0.035 ± 0.048 | -0.0425 ± 0.025 | -0.013 ± 0.069
